Data on 4 molecules can be found in article PMC4724192 (Biochemistry, 2014).

The test system of one experiment is ERK2. The settings on record: read-out: IC50 Published previously; cited from earlier work.
Experiment [1] addresses T1, 2P-ERK2 (Rattus norvegicus, UniProt P63086). In words: Preincubation / 300-fold dilution experiment, recovery of activity. The settings on record: for kinetic behaviour of binding and release: linear product accumulation, rapid recovery on dilution.
The target in experiment [2] is T1, 2P-ERK2. The settings on record: for mode of inhibition (Lineweaver-Burk replots): 2P-ERK2, varying ATP; for Ki: 2P-ERK2, rapid on/off inhibitors, varying ATP, 20 μM sub-D.
Experiment [3] deals with T1, 2P-ERK2. The settings on record: read-out: IC50 This study; 2P-ERK2, 20 μM sub-D, 100 μM ATP, 25 °C; eq 1.
For experiment [4], the target named is T1, 2P-ERK2. The class given is biochemical.
The target in experiment [5] is T1, 2P-ERK2. In words: Morrison titration experiment for tight-binding inhibitors. The class given is biochemical.
In experiment [6] the target is ERK. Particulars: read-out: Kd in vitro; cited from earlier work.
The test system of experiment [7] is ERK. The settings on record: read-out: IC50 in vivo (biological activity); cited from earlier work.
The next experiment concerns the target 0P-ERK2 (Rattus norvegicus, UniProt P63086). In words: biochemical.

Where “and” joins values, the source holds several entries; their conditions need not be identical. Identical values can stand only once. Like-named read-outs stand apart in the source and are kept apart here.

T1 sequence (P63086 whole entry): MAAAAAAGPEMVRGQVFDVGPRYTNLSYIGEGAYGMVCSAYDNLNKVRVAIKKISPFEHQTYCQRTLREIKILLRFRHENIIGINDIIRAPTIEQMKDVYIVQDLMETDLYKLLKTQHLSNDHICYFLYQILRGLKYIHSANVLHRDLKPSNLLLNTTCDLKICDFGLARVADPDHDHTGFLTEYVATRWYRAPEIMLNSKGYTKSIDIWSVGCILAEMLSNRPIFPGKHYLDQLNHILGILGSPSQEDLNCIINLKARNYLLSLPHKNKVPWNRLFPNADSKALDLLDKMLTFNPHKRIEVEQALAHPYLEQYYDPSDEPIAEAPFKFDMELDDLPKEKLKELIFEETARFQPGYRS
0P-ERK2, sequence (P63086 whole entry): as above

`Nc1[nH]nc2nnc(-c3c(-c4ccccc4)nn4ccccc34)cc12` [FR180204]: in the experiment on ERK2, the IC50 is 140 nM. Besides, the “kon (rate constant for association), lower bound” value at 2P-ERK2 [1] (2P-ERK2, inferred from dissociation rate constant >0.05 s^−1) is listed as >0.8 ^d μM^−1 s^−1. The “kinetic behaviour of binding and release” value on 2P-ERK2 [1] (2P-ERK2) is given as “rapid on/off inhibitors”. Moreover, at 2P-ERK2 [2], the “mode of inhibition (Lineweaver-Burk replots)” value is listed as “competitive versus ATP” and the affinity, expressed as Ki, was 63 ± 17 nM. In addition, the IC50 on 2P-ERK2 [3] worked out at 330 ± 64 nM.
In the case of `Cn1cnc2c(NCc3ccccc3)nc(NCCO)nc21` [Olomoucin], on 2P-ERK2 [1] (2P-ERK2), the “kinetic behaviour of binding and release” value was “rapid on/off inhibitors”. Also, at 2P-ERK2 [2], the “mode of inhibition (Lineweaver-Burk replots)” value is “competitive versus ATP” and the Ki was determined as 10800 nM. Moreover, the IC50 on 2P-ERK2 [3] worked out at 33000 nM.
As to `Nc1nccc(-c2c(-c3ccc(F)cc3)ncn2C2CCNCC2)n1` [SB220025], the “kinetic behaviour of binding and release” value on 2P-ERK2 [1] (2P-ERK2) is on record as “rapid on/off inhibitors”.
With `O=C(Nc1ccc2[nH]nc(-c3ccncc3)c2c1)[C@@H]1CCN(CC(=O)N2CCN(c3ccc(-c4ncccn4)cc3)CC2)C1` [SCH772984], the “kinetic behaviour of onset of inhibition” value on 2P-ERK2 [4] (2P-ERK2, curved product accumulation) is on record as “slow-onset inhibition”. At 2P-ERK2 [4] (read-out: kon (apparent rate constant for association)), the kon came out at 2.8e+06 ± 340000 M⁻¹ s⁻¹. Also, the Ki at 2P-ERK2 [5] was 0.12 ± 0.1 nM; on 0P-ERK2, 0.12 ± 0.04 nM. In addition, the IC50 was 0.24 nM in the experiment with ERK2; < 100 nM and 60 nM in the experiment with ERK [7]. Besides, the Kd on ERK [6] was 0.19 nM; at 2P-ERK2 [1] it was 0.11 ± 0.021 nM. Also, the “residence time (inverse of koff)” value on 2P-ERK2 [1] (2P-ERK2, predicted from koff) was 0.9 h. Also, the koff on 2P-ERK2 [1] (read-out: koff (dissociation rate constant)) was 0.000306 s⁻¹.

By IC50 is commonly meant the concentration that gives 50% inhibition. As a reminder, the Ki is a measure of affinity in units of concentration, obtained from inhibition or displacement. Higher therefore signals weaker binding. As a reminder, the kon is the second-order rate constant of association. The term Kd denotes a measure of binding affinity in units of concentration. What is called koff is the first-order rate constant of dissociation.
